Test results: US20160279135A1, “THERAPIES FOR TREATING MYELOPROLIFERATIVE DISORDERS” (Gilead Sciences, Inc., priority 2013, published 2016)
Where “and” joins values, the source holds several entries; their conditions need not be identical. Equal values may be shown once.

Columns and labels:
clinical = conditions: human, in vivo
Source text: For in vitro or in vivo studies, the effect amount of Compounds A, B, C, D, E, or ruxolinitib may be adjusted according to the experimental condition. Similarly, the effect amount of Compounds D1, D2, D3, D4, D5, D6, D7, D8, D9, E1, E2, E3, E4, E5, E6, E7, E8, E9, or F, may be adjusted according to the experimental condition for in vitro or in vivo studies. For example, compounds may be used in the amount of 0.001, 0.002, 0.003, 0.004, 0.005, 0.006, 0.007, 0.008, 0.009, 0.01, 0.02, 0.03, 0.04, 0.05, 0.06, 0.07, 0.08, 0.09, 0.1, 0.2, 0.3, 0.4, 0.5, 0.6, 0.7, 0.8, 0.9, 1.0, 1.5, 2.0, 2.5, 3.0, 3.5, 4.0, 5.0, 6.0, 7.0, 8.0, 9.0, or 10.0 μM. In some studies, the in vitro doses of the compounds may be calculated to correspond to the clinical doses of the compounds. The calculation may consider various factors, such as protein binding and plasma concentration. […] It is understood that the in vitro doses may differ, depend on the assay condition and other calculation factors, and that the clinical doses may differ depend on the disease indication and the patient condition.
(§1) In this study, PBMCs were isolated from the whole blood from five MF patients receiving chronic ruxolitinib treatment (rux 1-rux 5). The cells were treated with either vehicle, ruxolitinib, and/or Compound B for 2 hours then stimulated with TPO (50 ng/mL) for 10 minutes. Ruxolitinib at the dose of 1 or 20 nM and Compound B at the dose of 45, 200, or 700 nM were used.
Next, Pfeiffer cells were treated with IL6 (0 or 3 ng/mL), Compound A (0, 136, 272, or 695 nM), and/or Compound B (0, 74, 200, or 421 nM) (n=4 per group) for 96 hours. The doses in this assay may correspond to those used in a clinical setting. […] In addition, the in-vitro dose of 136 nM Compound A may correspond to the potential Caverage detected in patients receiving Compound A at 300 mg once a day.

Pfeiffer cells = test: CellTiter-Glo cell viability of Pfeiffer cells with IL6; format: cell-based; conditions: Homo sapiens, 96 h, IL6 3 ng/mL, n=4, read-out: percentage of viable Pfeiffer cells, AVG
Protocol: Next, Pfeiffer cells were treated with IL6 (0 or 3 ng/mL), Compound A (0, 136, 272, or 695 nM), and/or Compound B (0, 74, 200, or 421 nM) (n=4 per group) for 96 hours.
Cellular viability was determined using the CellTiter-Glo Luminescent Cell Viability Assay (Promega). The percentage of viable cells was normalized to the groups that were not treated with Compound A or Compound B, and standard deviation was calculated.

pS6RP Ser235/236 = test: flow cytometry of S6RP phosphorylation in CD34+ progenitor cells from MF patients; format: cell-based, human; conditions: 2 h, MF progenitor cells
Protocol: (§2) In this example, PBMCs were isolated from whole blood of myelofibrosis (MF) patients who had not received treatments (i.e. naïve patients) or received ruxolitinib (i.e. rux-treated patients). The cells were treated with 0.02, 0.2, or 2.0 μM of Compound B or vehicle (0.1% DMSO in 0.1% FBS/RPMI) for 2 hours at 37° C. The cells were then fixed, permeabilized, and stained for FACS analysis. Antibodies specific to p-AKT Ser473 and pS6RP Ser235/236 were used to detect AKT phosphorylation (p-AKT) and S6RP phosphorylation (p-S6RP) in CD34^+/CD3^−/CD14^−/CD19/CD66^− (BD Biosciences) gated cells using flow cytometry. The percentage of basal (i.e. untreated with TPO) AKT and S6RP phosphorylation were normalized to vehicle control (i.e. “no TPO” values shown in Table 2). A two-tailed paired t-test (GraphPad Prism) was used to calculate p-values. Values of p<0.05 were considered significant.
(§3) Also, PBMC cells were treated with Compound B and with TPO as described above. The percentage of TPO-activated AKT and S6RP phosphorylation were normalized to those of TPO-treated vehicle. […] Also, the inhibition to PI3K signaling was dose-dependent to Compound B.
(§4) Similar studies were conducted with PI3K inhibitors Compounds C and D. PBMC from MF patients had received ruxolitinib (rux) and MF patient had received Compound A. The cells were treated with Compounds C or D at 0, 20.0, 200.0, 2000.0 nM for 2 hours at 37° C. Cells were treated with TPO for 10 minutes. The percentage of basal p-AKT and p-S6RP levels were normalized to vehicle control and those of TPO-treated were normalized to TPO-treated vehicle control. The PI3K inhibitors Compounds C and D had the chemical names of (S)-2-(1-((9H-purin-6-yl)amino)ethyl)-6-fluoro-3-phenylquinazolin-4(3H)-one and (S)-2,4-diamino-6-(((5-chloro-8-fluoro-4-oxo-3-(pyridine-3-yl)-3,4-dihydroquinazolin-2-yl)(cyclopropyl)methyl)amino)pyrimidine-5-carbonitrile, respectively.

p-AKT Ser473 = test: flow cytometry of AKT phosphorylation in CD34+ progenitor cells from MF patients; format: cell-based, human; conditions: 2 h, MF progenitor cells
Protocol: as §2, §3, §4

p-STAT5 = test: flow cytometry of p-STAT5 in TPO-stimulated CD34+ cells from MF patients on chronic ruxolitinib (Example 8); format: cell-based, human; conditions: 2 h, then TPO 50 ng/mL, one value per patient, TPO vehicle = 100
Protocol: as §1
(§5) The treated cells were then fixed, permeabilized and stained for FACS analysis using FACSCalibur analyzed using BD FACSDiva software.

p-S6RP = test: flow cytometry of p-S6RP in TPO-stimulated CD34+ cells from MF patients on chronic ruxolitinib (Example 8); format: cell-based, human; conditions: for percentage of the p-S6RP levels: 2 h, then TPO 50 ng/mL, one value per patient, TPO vehicle = 100
Protocol: as §1, §5

pSTAT3 (Tyr705) = test: Western blot of pSTAT3 in IL6-stimulated Pfeiffer cells; format: cell-based; conditions: vs 0 ng/mL IL6, normalized to total STAT3, n=1
Protocol: Pfeiffer cells were stimulated for 4 hours with 0, 1, 3, or 10 ng/mL of interleukin 6 (IL6) (n=1 per group) to activate STAT3 (i.e. increase the levels of pSTAT3). The cells were harvested, lysed and analyzed by Western blot. Antibodies specific for pSTAT3 (Tyr705) and total STAT3 were used to detect the levels of pSTAT3 and total STAT3, respectively. Raw pSTAT3 levels were quantified using densitometry software (Image Studio) and normalized to total STAT3 levels.

[1] = 20 nM, Basal, Compound A-treated Cells, vehicle = 100
[2] = 20 nM, Basal, Rux-treated Cells, vehicle = 100
[3] = 20 nM, TPO 10 min, Compound A-treated Cells, TPO-treated vehicle = 100
[4] = 20 nM, TPO 10 min, Rux-treated Cells, TPO-treated vehicle = 100
[5] = 200 nM, Basal, Compound A-treated Cells, vehicle = 100
[6] = 200 nM, Basal, Rux-treated Cells, vehicle = 100
[7] = 200 nM, TPO 10 min, Compound A-treated Cells, TPO-treated vehicle = 100
[8] = 200 nM, TPO 10 min, Rux-treated Cells, TPO-treated vehicle = 100
[9] = 2000 nM, Basal, Compound A-treated Cells, vehicle = 100
[10] = 2000 nM, Basal, Rux-treated Cells, vehicle = 100
[11] = 2000 nM, TPO 10 min, Compound A-treated Cells, TPO-treated vehicle = 100
[12] = 2000 nM, TPO 10 min, Rux-treated Cells, TPO-treated vehicle = 100

Row | Molecule | percentage of p-S6RP (pS6) (pS6RP Ser235/236; [1]) | percentage of p-S6RP (pS6) (pS6RP Ser235/236; [2]) | percentage of p-S6RP (pS6) (pS6RP Ser235/236; [3]) | percentage of p-S6RP (pS6) (pS6RP Ser235/236; [4]) | percentage of p-S6RP (pS6) (pS6RP Ser235/236; [5]) | percentage of p-S6RP (pS6) (pS6RP Ser235/236; [6]) | percentage of p-S6RP (pS6) (pS6RP Ser235/236; [7]) | percentage of p-S6RP (pS6) (pS6RP Ser235/236; [8]) | percentage of p-S6RP (pS6) (pS6RP Ser235/236; [9]) | percentage of p-S6RP (pS6) (pS6RP Ser235/236; [10]) | percentage of p-S6RP (pS6) (pS6RP Ser235/236; [11]) | percentage of p-S6RP (pS6) (pS6RP Ser235/236; [12]) | percentage of p-AKT (pAKT) (p-AKT Ser473; [1]) | percentage of p-AKT (pAKT) (p-AKT Ser473; [2]) | percentage of p-AKT (pAKT) (p-AKT Ser473; [3]) | percentage of p-AKT (pAKT) (p-AKT Ser473; [4]) | percentage of p-AKT (pAKT) (p-AKT Ser473; [5]) | percentage of p-AKT (pAKT) (p-AKT Ser473; [6]) | percentage of p-AKT (pAKT) (p-AKT Ser473; [7]) | percentage of p-AKT (pAKT) (p-AKT Ser473; [8]) | other results
1 | N#CCNC(=O)c1ccc(-c2ccnc(Nc3ccc(N4CCOCC4)cc3)n2)cc1 [Compound A, N-(cyanomethyl)-4-[2-(4-morpholinoanilino)pyrimidin-4-yl]benzamide] |  |  |  |  |  |  |  |  |  |  |  |  |  |  |  |  |  |  |  |  | Cmax (clinical; 300 mg): 695 nM; viability at 0.136 µM (Pfeiffer cells; 136 nM Compound A): 104%; viability at 0.272 µM (Pfeiffer cells; 272 nM Compound A): 99%; viability at 0.695 µM (Pfeiffer cells; 695 nM Compound A): 73%
2 | C[C@H](Nc1ncnc2[nH]cnc12)c1nc2ccc(F)cc2c(=O)n1-c1ccccc1 [Compound C, (S)-2-(1-((9H-purin-6-yl)amino)ethyl)-6-fluoro-3-phenylquinazolin-4(3H)-one] | 82% | 65% | 66% | 84% | 75% | 59% | 70% | 62% | 53% | 43% | 36% | 42% | 89% | 88% | 65% | 65% | 82% | 90% | 59% | 53% | percentage of p-AKT (pAKT) (p-AKT Ser473; [9]): 75%; percentage of p-AKT (pAKT) (p-AKT Ser473; [10]): 75%; percentage of p-AKT (pAKT) (p-AKT Ser473; [11]): 43%; percentage of p-AKT (pAKT) (p-AKT Ser473; [12]): 24%
3 | N#Cc1c(N)nc(N)nc1N[C@H](c1nc2c(F)ccc(Cl)c2c(=O)n1-c1cccnc1)C1CC1 [Compound D, (S)-2,4-diamino-6-(((5-chloro-8-fluoro-4-oxo-3-(pyridine-3-yl)-3,4-dihydroquinazolin-2-yl)(cyclopropyl)methyl)amino)pyrimidine-5-carbonitrile] | 58% | 58% | 74% | 48% | 48% | 50% | 55% | 39% | 18% | 39% | 25% | 19% | 87% | 83% | 49% | 58% | 57% | 85% | 41% | 50% | percentage of p-AKT (pAKT) (p-AKT Ser473; [9]): 60%; percentage of p-AKT (pAKT) (p-AKT Ser473; [10]): 76%; percentage of p-AKT (pAKT) (p-AKT Ser473; [11]): 19%; percentage of p-AKT (pAKT) (p-AKT Ser473; [12]): 39%
4 | N#CC[C@H](C1CCCC1)n1cc(-c2ncnc3[nH]ccc23)cn1 [ruxolitinib, reference compound] |  |  |  |  |  |  |  |  |  |  |  |  |  |  |  |  |  |  |  |  | percentage of the p-STAT5 levels (p-STAT5; ruxolitinib 1 nM): 83% and 94% and 97% and 68% and 91%; percentage of the p-STAT5 levels (p-STAT5; ruxolitinib 20 nM): 77% and 63% and 74% and 71% and 62%; in vitro dose corresponding to the Cmin (clinical): 1 nM; Cmax (clinical; 15 mg): 20 nM; inhibition at 0.02 µM (p-S6RP; Homo sapiens, ruxolitinib 20 nM alone, TPO-stimulated cells, read-out: p-S6RP levels inhibited or reduced by): 69%; pS6RP levels inhibited (p-S6RP; ruxolitinib 1 nM alone, TPO-stimulated cells): not inhibited; percentage of the p-S6RP levels (p-S6RP; ruxolitinib 1 nM): 101% and 78% and 92% and 129% and 75%; percentage of the p-S6RP levels (p-S6RP; ruxolitinib 20 nM): 42% and 25% and 22% and 34% and 28%
5 | IL6: interleukin 6 (IL6) used to activate STAT3 in Pfeiffer cells |  |  |  |  |  |  |  |  |  |  |  |  |  |  |  |  |  |  |  |  | increase of pSTAT3 levels (STAT3 activation) (pSTAT3 (Tyr705); 1 ng/mL IL6, 4 h): 2.8 fold; increase of pSTAT3 levels (STAT3 activation) (pSTAT3 (Tyr705); 3 ng/mL IL6, 4 h): 3.8 fold; increase of pSTAT3 levels (STAT3 activation) (pSTAT3 (Tyr705); 10 ng/mL IL6, 4 h): 2.5 fold
